# Laboratory results reported in patent publication US4622386A, “[1,7-di-alanine]calcitonin” (Armour Pharmaceutical Company, priority 1985, dated 1986).
# Tests used:
# [1] = system: serum calcium concentration; assay: Biological assay of calcitonin analogs in vivo: reduction of serum calcium concentration, 2×2 parallel line assay; conditions: rats, subcutaneous injection, blood withdrawn 1 hour later
# Experimental: Biological Assay Of Calcitonin Analogs In Vivo
# The biological potency of [Di-Ala^1,7 ]salmon calcitonin was determined by comparing the reduction of serum calcium concentration which followed administration by graded doses of [Di-Ala^1,7 ]SCT and synthetic salmon calcitonin standard. Rats were divided into four groups of seven animals, and each group was assigned at random to a dose of standard or test solution. Low and high doses were chosen from the linear portion of the dose-responsive curve. For the salmon calcitonin standard, the values were 0.7 and 2.1 mcg. peptide/100 g. body weight (BW). This dose approximates 3 and 9 MU/100 g. BW. Peptides were given by subcutaneous injection (0.2 ml/100 g. BW) and blood was withdrawn 1 hour later for serum calcium determination. Sera are processed and analyzed within two hours of collection. […]. Results were analyzed by a 2×2 parallel line assay [Gaddum, J. H., J. Pharm. Pharmacol., 6, 345 (1953)]. The standard salmon calcitonin used was independently determined to contain greater than 4,000 IU/mg. [Di-Ala^1,7 ]SCT assayed at 5550 IU/mg.
# [2] = system: serum calcium concentration; conditions: standard used in the rat serum calcium assay; cited from earlier work
substance,measurement,setting,value
"[1,7-Di-Alanine)]salmon calcitonin [[Di-Ala^1,7]SCT]",biological potency (reduction of serum calcium concentration vs synthetic salmon calcitonin standard),[1],5550 IU/mg
Salmon calcitonin [standard salmon calcitonin],"potency of the standard salmon calcitonin, independently determined",[2],"greater than 4,000 IU/mg"
